# Experimental data reported in US20220175888A1, “CARBOXYLATED OSTEOCALCIN FOR TREATMENT OF AMYLOIDOSIS OR DISEASES ASSOCIATED WITH ABNORMAL PROTEIN FOLDING” (NATIONAL INSTITUTE OF IMMUNOLOGY, priority 2018, published 2022).
# Positions of bridges follow the written chain, without caps; N, C: chain ends. Non-standard residues stand in square brackets, D forms with d. No end group written: not given here. Gla = N[C@@H](CC(C(=O)O)C(=O)O)C(=O)O
# Key:
# TFEB = TFEB localization, transcription, protein expression and phosphorylation in astrocytes; type: cell-based, mouse; conditions: qPCR
# astrocytes = assay: Lysotracker Red / HiLyte Abeta42 confocal microscopy in astrocytes; type: cell-based, mouse
# Experimental: This was further confirmed by surface staining of LRP1 and confocal microscopy (FIG. 4Gc). […] We next assessed how Abeta42 degradation occurs in Gla-OC exposed astrocytes. This was assessed by first evaluating the protein expression of LC3II by immunoblot analysis. Under normal conditions excess cargo in cell is cast-off by a cell through a recycling pathway called ‘autophagy’. The first step in autophagy is autophagosome formation wherein LC3I a cytosolic microtubule associated protein light chain 3 gets lipidated to form LC3II and recruits to autophagosomal membranes to allow cells to be LC3II*, a bona fide marker of autophagy and the first step towards autophagic lysosomal degradation. Another requirement for autophagosomes to be functionally relevant is downstream fusion with lysosomes. Under normal conditions, autophagosomes fuse with endosomes to form a higher order organelle called […] ‘amphisomes’, which then matures to form ‘autolysosomes or terminal lysosomes’. The efficiency of autophagosome/lysosome fusion was evaluated using Lysotracker Red, a fluorescent dye that preferentially accumulates in vesicles with acidic pH. The cells were treated with Lysotracker Red for 20 min and fixed using ice-cold methanol. After confocal microscopy (Ziess) the images were analyzed using Image J (NIH). The co-occurrence of the two signals is shown as Mander's overlap co-efficient (MOC) in the range of values 0 to 1. […] This dye accumulates in acidic intracellular organelles and its fluorescence increases with acidic environments and decreases with that of alkaline. The status of lysosome biogenesis was assessed by immunoblot or immunocytochemistry. […] To evaluate lysosome biogenesis the status of LAMP2 (by immunoblot), cathepsins (by immunoblot and colorimetric activity based assay) and TFEB or transcription factor EB (by immunocytochemistry for cellular localization of transcription, by PCR for evaluating gene transcription, by immunoblot for protein expression and by co-immunoprecipitation and immunoblot to check phosphorylation of TFEB) were evaluated. […]
# [1] = Gla-OC and Glu-OC in serum by ELISA; type: in vivo; conditions: 5×FAD Tg mice vs Tg controls, 300 ng per mouse per day
# Text: Two-month old 5×FAD Tg mice, both male as well as female were used for the study. For the purposes of this study wild type mice is referred to as Wt and 5×FAD mice is referred to as Tg. All experimental procedures in were approved by the Institutional Animal Ethics Committee. For experimentation, the mice were divided in below groups for treatment:
# 1. Wild type mice given vehicle (lx PBS or phosphate buffered saline; pH 7.4). 2. 5×FAD Transgenic mice given vehicle. 3. 5×FAD Transgenic mice given carboxylated osteocalcin (Gla-OC) subcutaneously at doses (300 ng-1000 ng per mouse of weight ranging from 25-28 g for 1 month). 4. Wild type mice given Gla-OC.
# Foremost the status of osteocalcin in long bones and serum of amyloid overexpressing 5×FAD Tg mice was evaluated. Thereafter, the effect of osteocalcin administration against amyloidosis in brain was tested. 1. The status of osteocalcin expression in bone was determined by evaluating the mRNA level of Bglap2 gene (gene that encodes osteocalcin in mouse) using quantitative PCR or qPCR. Long bones of mice like femur and tibia were harvested from mice after sacrifice. […] Following amplification, fold changes in gene expression versus β-actin (reference) analysis was determined using the […] (Livak) method. […] Carboxylated (Gla-OC) and undercarboxylated (Glu-OC) forms of osteocalcin in serum of mice was analyzed by ELISA. […]
molecule,measurement,setting,value
Cn1cnc(N)c2ncnc1-2 [3-methyl adenine],transcription of Tfeb gene in the presence of autophagy inhibitors,TFEB,increased
CCN(CC)CCCC(C)Nc1ccnc2cc(Cl)ccc12 (stereo not drawn) [chloroquine],transcription of Tfeb gene in the presence of autophagy inhibitors,TFEB,increased
"HiLyte Abeta42: fluorescent HiLyte labelled Abeta42 peptide added to astrocytes; challenge agent, Abeta42 alone comparator","number of Lysotracker Red puncta, lower as compared to basal",astrocytes; HiLyte Abeta42 treated cells without Gla-OC,4 fold
same,size of Lysotracker Red puncta,astrocytes; astrocyte cultures,< 0.25 μm^2
same,degree of co-localization of HiLyte Abeta42 with Lysotracker Red (Mander's overlap co-efficient),"astrocytes; range of values 0 to 1, Image J analysis",0.412
"YLYQWLGAPVPYPDPL[Gla]PRR[Gla]VC[Gla]LNPDCDELADHIGFQEAYRRFYGPV (disulfide 23-29) [Gla-OC, carboxylated osteocalcin]",level of Gla-OC in serum,[1],significantly increased (p<0.05)
